Assay results from US4314061A, “Certain 3,6-bis-(heteroaminoalkoxy) acridines” (priority 1980, dated 1982).
Structures can show the parent of a compound that is named as a salt.

Key:
Columbia SK virus = assay: Antiviral effects against an interferon-sensitive virus, Columbia SK; format: in vivo, Taconic Farms male, white mice; conditions: 400 mg/kg oral, 18 hours before infection; 14 days post injection
Description: Taconic Farms male, white mice, weighing 18-24 g were treated by gavage, 18 hours before infection with a test compound suspended or dissolved in 1.0 ml of 0.2% aqueous agar solution. The mice were then infected by subcutaneous injection with one LD95 of Columbia SK virus in 0.2 ml of distilled water. Groups of infected, untreated mice were used as controls to show the lethality of the infection. The test duration was 14 days.

[1] = test system: Rauscher Virus-Induced Leukemia; assay: Inhibition of splenomegaly in mice with Rauscher virus-induced leukemia; format: in vivo, Balb/c mice
[2] = test system: Rauscher Virus-Induced Leukemia; assay: Restoration of antibody formation in mice with Rauscher virus-induced leukemia; format: in vivo, Balb/c mice
Lewis lung carcinoma = assay: Surgical-adjuvant antitumor activity against Lewis lung carcinoma implanted subcutaneously in footpads; format: in vivo, BDF1 mice; conditions: 100 mg/kg intraperitoneal
Description: BDF1 mice were inoculated subcutaneously in the right hind footpad with 5×10^5 viable Lewis Lung carcinoma cells, on day zero. […] A control group of mice received a saline placebo instead of drug, and another group of tumor bearing mice received the positive control drug cyclophosphamide, at 100 mg/kg, administered by intraperitoneal injection. On the 11th day after tumor implantation, the mice were anesthesized with Nembutal, and the tumor bearing feet surgically amputated above the ankle joint. The surgical incision was swabbed with alcohol and sealed with stainless steel wound clips. The tumor bearing feet were individually weighed and the average weight of a normal foot (determined by weighing amputated feet from non-tumor bearing mice of the same age, sex and body weight) was subtracted to obtain the weight of tumor tissue in the amputated foot. Mice were then observed for deaths until the 90th day after tumor implantation. […]
^1 BDF1 male mice inoculated subcutaneously in footpad with 5
× 10^5 Lewis lung tumor cells on day zero;
(§1) 3,6bis(2-diethylaminoethoxy)acridine trihydrochloride administered orally
(§2) and Cyclophosphamide intraperitoneally, on days 1, 7, and 13 following
(§3) ^2 Average tumor weight determined after surgical amputation of tumor
bearing foot on day 11 following tumor implantation.

B16 melanoma = assay: Surgical-adjuvant antitumor activity against B16 melanoma implanted subcutaneously in footpads; format: in vivo, BDF1 mice; conditions: 100 mg/kg intraperitoneal
Description: BDF1 mice were inoculated subcutaneously in the right hind footpad with 5×10^5 viable B16 melanoma cells, on day zero. The drug was prepared in normal saline and administered by the oral route once daily, on days 1, 7, and 13 following tumor implantation, at doses range from 50 mg/kg to 400 mg/kg. A control group of mice received a saline placebo instead of drug, and another group of tumor bearing mice received the positive control drug cyclophosphamide, at 100 mg/kg, by intraperitoneal injection. On the 21st day after tumor implantation, the mice were anesthesized with Nembutal, and the tumor bearing feet were surgically amputated above the ankle joint. The surgical incision was swabbed with alcohol and sealed with stainless steel wound clips. The tumor bearing feet were individually weighed and the average weight of a normal foot (determined by weighing amputated feet from non-tumor bearing mice of the same sex, age, and body weight) was subtracted to obtain the weight of tumor tissue in the amputated feet. Mice were then observed for deaths until the 90th day after tumor implantation. […]
^1 BDF1 male mice inocluated with 5 × 10^5 B16 melanom
cells subcutaneously in footpad on day zero;
as §1, §2, §3
bearing foot on day 21 following tumor implantation.

normal mouse bone marrow = assay: Effect on normal mouse bone marrow; format: in vivo, C57 BL6 male mice; conditions: 24 hours after treatment; test compound oral, Cytoxan intraperitoneal
Description: The effect of drugs on normal mouse bone marrow is evaluated by determining total cell counts of femurs and by the ability of surviving cells to form colonies in semi-solid medium. The test compound is administered orally and the reference drug Cytoxan is administered intraperitoneally to C57 BL6 male mice. One femur from each of three mice per dose level is assayed 24 hours after treatment. Counts of nucleated cells are performed on pooled marrow suspensions and the clonogenic assay is performed by plating 50,000 cells in one ml. of culture medium in each of four culture dishes. The medium to support bone marrow progenitor cell growth is McCoy's medium supplemented with 0.9% methocel, 1.8% human serum albumin, 10% bovine fetal serum and 10% "conditioned" L-cell medium. Cultures are incubated at 37° C. in a humidified atmosphere and colonies are counted at seven days.

B-16 melanoma = assay: Potentiation of cyclophosphamide (Cytoxan) activity against B16 melanoma in mice; format: in vivo, BDF1 mice
Description: BDF1 male mice were inoculated subcutaneously with 0.25 ml. of a 10% B-16 melanoma homogenate. Cyclophosphamide was administered intraperitoneally at 80 mg./kg. the second day following the day of tumor implantation. Test compounds were given intraperitoneally on days +6, +8 and +10 relative to tumor implantation. […]
BDF1 male mice inoculated subcutaneously with 0.25 ml. of a 10% tumo
homogenate on day 0. Drugs were administered intraperitoneally;
cyclophosphoamide on day 2, 3,6bis(2-diethylaminoethoxy)acridine
trihydrochloride on days 6, 8 and 10.
^1 Number of survivors over number of mice treated.

[3] = test system: malignant melanoma, acute leukemia, lung cancer, breast cancer; conditions: early clinical trials; cited from earlier work
tumor = conditions: experimental studies in animals; cited from earlier work
[4] = test system: natural killer lymphocytes (NK cells); assay: Stimulation of NK-cell activity in normal mice; conditions: 10 mg/kg intraperitoneal
[5] = cyclophosphamide 80 mg/kg i.p. alone
[6] = cyclophosphamide 80 mg/kg i.p. alone, day 26

In the case of `CCN(CC)CCOc1ccc2cc3ccc(OCCN(CC)CC)c(Cl)c3nc2c1Cl` [3,6-bis(2-diethylaminoethoxy)-4,5-dichloroacridine], the Survivors/Total (Columbia SK virus) is reported as 7/15, the “% Reduction in splenomegaly” value ([1]; 50 mg/kg) is reported as 86% and the “Serum hemagglutinin titer/saline control titer” value ([2]; 100 mg/kg oral) is reported as 128/16.

In the case of `CC(C)NCCOc1ccc2cc3ccc(OCCNC(C)C)cc3nc2c1.Cl.Cl.Cl` [3,6-bis(2-isopropylaminoethoxy)acridine trihydrochloride], the Survivors/Total (Columbia SK virus) is reported as 15/15, the “% Reduction in splenomegaly” value ([1]; 200 mg/kg) is reported as 96% and the “Serum hemagglutinin titer/saline control titer” value ([2]; 100 mg/kg oral) is reported as 512/32.

For `Cl.Cl.Cl.c1cc2cc3ccc(OCCN4CCCCC4)cc3nc2cc1OCCN1CCCCC1` [3,6-bis(2-piperidinoethoxy)acridine trihydrochloride], the Survivors/Total (Columbia SK virus) was 12/15, the “% Reduction in splenomegaly” value ([1]; 100 mg/kg) was 84% and the “Serum hemagglutinin titer/saline control titer” value ([2]; 100 mg/kg oral) was 256/16.

With `c1cc2cc3ccc(OCCCN4CCCCC4)cc3nc2cc1OCCCN1CCCCC1` [3,6-bis[3-(1-piperidino)propoxy]acridine trihydrochloride] the Survivors/Total (Columbia SK virus) was 12/15, the “% Reduction in splenomegaly” value ([1]; 50 mg/kg) was 74% and the “Serum hemagglutinin titer/saline control titer” value ([2]; 50 mg/kg oral) was 1024/32.

With `O=P1(N(CCCl)CCCl)NCCCO1` (stereo not shown) [Cyclophosphamide, reference compound] the Median survival time (Lewis lung carcinoma) was greater than 90.0 days, the Average tumor weight (Lewis lung carcinoma; Day +11) was 93 mg and the “Average % of tumor weight inhibition” value (Lewis lung carcinoma; Day +11, * significant (≥58%)) was 75%. The “No. Survivors/No. Treated” value (Lewis lung carcinoma; at +90 days, ** p < .05) was 10/12, the “% Increased life-span” value (Lewis lung carcinoma; + significant (≥25%)) was greater than 200% and the Median survival time (B16 melanoma) was greater than 90.0 days. For the same molecule, the Average tumor weight (B16 melanoma; Day +21) was 202 mg, the “Average % of tumor weight inhibition” value (B16 melanoma; Day +21, * significant (≥58%)) was 67% and the “No. Survivors/No. Treated” value (B16 melanoma; at +90 days, ** significant) was 7/12. For the same molecule, the “% Increased life-span” value (B16 melanoma; + significant (≥25%)) was greater than 70%, the “% Reduction in splenomegaly” value ([1]; 100 mg/kg) was 106% and the reduction in splenomegaly ([1]; general statement, no dose, relative to placebo treated RLV-infected mice) was no less than 50%. For the same molecule, the “Effect on total nucleated cell count of femur marrow, in words” value (normal mouse bone marrow) was “depressed the cell count significantly”, the “ILS (Percent increase in life span over control)” value (B-16 melanoma; [5]) was 11% and the “MST (Median Survival Time)” value (B-16 melanoma; [5]) was 25.0 days. The “Number of survivors over number of mice treated” value (B-16 melanoma; cyclophosphamide 80 mg/kg i.p. alone, day 21) was 8/8, the Average tumor weight (B-16 melanoma; cyclophosphamide 80 mg/kg i.p. alone, day 21, p <0.05 vs untreated) was 1237 mg and the Average tumor weight (B-16 melanoma; [6]) was 7458 mg. The “Number of survivors over number of mice treated” value (B-16 melanoma; [6]) was 3/8 and the “50% inhibition in local tumor growth, in words” value (B-16 melanoma; monotherapy, i.p., day +26) was “failed to do so”.

For `c1ccc([C@H]2CN3CCSC3=N2)cc1` [levamisole], the “Clinical antitumor success, in words” value [3] is given as “Some successes have been claimed” and the “Stimulation of cellular immunity and tumor regression, in words” value (tumor) is given as “shown to stimulate cellular immunity and to produce tumor regression”.

For “polyinosinic acid:polycytidylic acid [Poly I:C, reference compound]”, the “Serum hemagglutinin titer/saline control titer” value ([2]; 10 mg/kg IP) was 1024/32, the “% Cytotoxicity” value ([4]; Test 1 (CD1 mice), * p <.05) was 24.7% and the “% Cytotoxicity” value ([4]; Test 2 (BDF1 hybrids)) was 36.1%.
